The text below walks through data of patent publication US10556865B2, “Synergistic herbicidal composition containing certain pyridine or pyrimidine carboxylic acids and certain cereal and rice herbicides” (Dow AgroSciences, LLC, priority 2007, dated 2020).

“And” between values parts separate entries of the source, which are not always exact repeats. Equal values may be shown once.

Holding throughout (type): in vivo
Test [1] has as its system Fimbristylis miliacea (L.) VAHL (FIMMI). Kind of test: Herbicidal mixtures for weed control in transplanted paddy rice (in-water application, visual % injury). On the procedure: (§1) Weed seeds or nutlets of the desired test plant species were planted in puddled soil (mud) prepared by mixing a non-sterilized mineral soil (28 percent silt, 18 percent clay, and 54 percent sand, with a pH of about 7.3 to 7.8 and an organic matter content of about 1.0 percent) and water at a ratio of 100 kilograms (kg) of soil to 19 L of water. The prepared mud was dispensed in 250 mL aliquots into 480 mL non-perforated plastic pots with a surface area of 91.6 square centimeters leaving a headspace of 3 centimeters in each pot. Rice seeds were planted in Sun Gro MetroMix® 306 planting mixture, which typically has a pH of 6.0 to 6.8 and an organic matter content of about 30 percent, in plastic plug trays. Seedlings at the second or third leaf stage of growth were transplanted into 650 mL of mud contained in 960 mL non-perforated plastic pots with a surface area of 91.6 cm^2 4 days prior to herbicide application. The paddy was created by filling the 3 centimeter headspace of the pots with water. […] The plants were grown for 4-14 days in a greenhouse with an approximate 14 hr photoperiod which was maintained at about 29° C. during the day and 26° C. during the night. Nutrients were added as Osmocote (17:6:10, N:P:K+minor nutrients) at 2 g per cup. Water was added on a regular basis to maintain the paddy flood, and supplemental lighting was provided with overhead metal halide 1000-Watt lamps as necessary. The plants were employed for testing when they reached the second or third true leaf stage.
(§2) Treatments consisted of esters or salts of compound A, compound C, or compound D and various herbicidal components alone and in combination. For technical grade compounds, a weighed amount, determined by the highest rate to be tested, was placed in an individual 120 mL glass vial and was dissolved in 20 mL of acetone to obtain concentrated stock solutions. […] The concentrated stock solutions obtained were diluted with 20 mL of an aqueous mixture containing 2.5% Agri-dex crop oil concentrate (v/v). For formulated compounds, a measured amount, determined by the highest rate to be tested, was placed in an individual 120 mL glass vial and was dissolved in 20 mL of 2.5% (v/v) Agri-dex crop oil concentrate to obtain concentrated stock solutions. The concentrated stock solutions obtained were diluted with 20 mL of acetone. Applications were made by injecting an appropriate amount of the stock solution into the aqueous layer of the paddy. Control plants were treated in the same manner with the solvent blank. All treated plant material received the same concentration of acetone and crop oil concentrate.
(§3) Forms of compounds A, C, and D were applied on an acid equivalent basis. Other herbicidal components were applied on an active ingredient basis and included acetolactate synthase (ALS)-inhibiting herbicides penoxsulam (triazolopyrimidine chemical class) applied as Grasp SC, […] (sulfonylurea chemical class) applied as Sirius G, and bensulfuron-methyl (sulfonylurea chemical class) applied as Londax; acetyl CoA carboxylase (ACCase) inhibiting herbicides cyhalofop-butyl applied as Clincher G and fenoxaprop-p-ethyl applied as Ricestar HT; auxinic herbicide quinclorac applied as Facet 75 DF; phytoene desaturase inhibiting herbicide norflurazon; and p-hydroxyphenylpyruvate dioxygenase (HPPD) inhibiting herbicide sulcotrione applied as Mikado.
(§4) The treated plants and control plants were placed in a greenhouse as described above and water was added as needed to maintain a paddy flood. After 3 weeks the condition of the test plants as compared with that of the untreated plants was determined visually and scored on a scale of 0 to 100 percent where 0 corresponds to no injury and 100 corresponds to complete kill.

The next test relates to Cyperus species (CYPSS). The test is described as above. How it is done: (§5) Weed seeds or nutlets of the desired test plant species were planted in puddled soil (mud) prepared by mixing a non-sterilized mineral soil (28 percent silt, 18 percent clay, and 54 percent sand, with a pH of about 7.3 to 7.8 and an organic matter content of about 1.0 percent) and water at a ratio of 100 kilograms (kg) of soil to 19 L of water. The prepared mud was dispensed in 250 mL aliquots into 480 mL non-perforated plastic pots with a surface area of 91.6 square centimeters leaving a headspace of 3 centimeters in each pot. Rice seeds were planted in Sun Gro MetroMix® 306 planting mixture, which typically has a pH of 6.0 to 6.8 and an organic matter content of about 30 percent, in plastic plug trays. Seedlings at the second or third leaf stage of growth were transplanted into 650 mL of mud contained in 960 mL non-perforated plastic pots with a surface area of 91.6 cm^2 4 days prior to herbicide application. The paddy was created by filling the 3 centimeter headspace of the pots with water. When required to ensure good germination and healthy plants, a fungicide treatment and/or other chemical or physical treatment was applied. The plants were grown for 4-14 days in a greenhouse with an approximate 14 hr photoperiod which was maintained at about 29° C. during the day and 26° C. during the night. Nutrients were added as Osmocote (17:6:10, N:P:K+minor nutrients) at 2 g per cup. Water was added on a regular basis to maintain the paddy flood, and supplemental lighting was provided with overhead metal halide 1000-Watt lamps as necessary. The plants were employed for testing when they reached the second or third true leaf stage.
as §2, §3, §4

For test [2], the system named is Eleocharis kuroguwai OHWI (ELOKU). The description is as above. How it is done:
as §5, §2, §3, §4

Test [3] deals with Scirpus maritimus L. (SCPMA). The description is as above. On the procedure:
as §5, §2, §3, §4

For test [4], the system named is Leptochloa chinensis (L.) NEES (LEFCH). The test is described as above. On the procedure:
as §5, §2, §3, §4

The subject of test [5] is Sphenoclea zeylanica GAERTN. (SPDZE). The description is as above. On the procedure:
as §5, §2, §3, §4

The subject of test [6] is Echinochloa species (ECHSS). In words: Herbicidal mixtures for weed control in transplanted paddy rice (in-water application, visual % injury after 3 weeks). To be noted: ECHCG. On the procedure: as §5, §2, §3, §4
Test [7] relates to Cyperus esculentus L. (CYPES). In words: Postemergence herbicidal mixtures for weed control in direct seeded rice (greenhouse, visual % injury).
For the next test, the system named is Scirpus species (SCPSS). In words: Herbicidal mixtures for weed control in transplanted paddy rice (in-water application, visual % injury). To be noted: SCPJU; 90 g/ha alone. How it is done:
as §1, §2, §3, §4

Test [8] concerns Ipomoea hederacea (L.) JACQ. (IPOHE). In words: Postemergence herbicidal mixtures for weed control in direct seeded rice (greenhouse, visual % injury after 3 weeks).
Test [9] deals with Polygonum pensylvanicum L. (POLPY). In words: Postemergence herbicidal mixtures for weed control in direct seeded rice (greenhouse, visual % injury). To be noted: alone 100 g/ha.
A further test relates to Cyperus iria L. (CYPIR). Described as above.

Regarding `CCN(CC)CC.COc1c(Cl)ccc(-c2cc(N)c(Cl)c(C(=O)O)n2)c1Cl` [Compound C TEA], the “% Injury Ob” value in test [1] (35 g/ha alone) amounted to 0%; in test [1] (70 g/ha alone), 0%; with Cyperus species (CYPSS) (CYPES, 35 g/ha alone), 0%; in the test with Cyperus species (CYPSS) (CYPES, 70 g/ha alone), 40%; in the test with Cyperus species (CYPSS) (CYPIR, 35 g/ha alone) it was 20%; in the test with Cyperus species (CYPSS) (CYPIR, 70 g/ha alone), 60%. Moreover, the “% Injury Ob” value in test [2] (35 g/ha alone) was 0%; in test [2] (70 g/ha alone), 50%; in test [3] (35 g/ha alone), 0%; in [3] (70 g/ha alone) it was 0%; in test [4] (35 g/ha alone), 50%; in test [4] (70 g/ha alone) it was 95%. In addition, the “% Injury Ob” value in test [5] (35 g/ha alone) stood at 50%; in test [5] (70 g/ha alone), 80%; in test [6] (35 g/ha alone), 0%; in test [6] (70 g/ha alone), 25%. Also, the “% Injury Obs” value in test [2] (35 g/ha alone) worked out at 0%; in [2] (70 g/ha alone) it was 50%.

In the case of `CCCCOC(=O)[C@@H](C)Oc1ccc(Oc2ccc(C#N)cc2F)cc1` [Cyhalofop-butyl], the “% Injury CYPES Ob” value in test [7] (alone 100 g/ha) and in test [7] (alone 200 g/ha) was 0% each time. Also, the “% Injury Ob” value in the test with Scirpus species (SCPSS) was determined as 0%; in test [1] (90 g/ha alone), 0%; in the test on Cyperus species (CYPSS) (CYPES, 90 g/ha alone) it was 0%; with Cyperus species (CYPSS) (CYPIR, 90 g/ha alone) it was 0%; in test [3] (90 g/ha alone) it was 0%; in test [4] (90 g/ha alone), 50%. The “% Injury Ob” value in test [5] (90 g/ha alone) was 0%; in test [6] (90 g/ha alone), 50%; in [6] (180 g/ha alone), 75% and 95%. Further, the “% Injury IPOHE Ob” value in test [8] (alone 140 g/ha) and in test [8] (alone 280 g/ha) was 0% each time. Moreover, the “% Injury POLPY Ob” value in test [9] is reported as 0%. Further, the “% Injury CYPIR Ob” value in the test with Cyperus iria L. (CYPIR) (alone 140 g/ha) and in the test on Cyperus iria L. (CYPIR) (alone 280 g/ha) was 0% each time.
